The results in this text go back to ChEMBL document CHEMBL1201862, “PubChem BioAssay data set” (2004).

Test systems include BT-549; MDA-N; SNB-78; M19-MEL; LXFL 529; XF498; HOP-18; KM-20L2.
Holding throughout (assay): growth of human tumour cells (NCI), 48 h

The structures appear in SMILES notation.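 Five concentrations, 48 hours, 96-well plates. GI50: concentration for 50% inhibition of growth.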 Activity calls are given as the source filed them. Rule as the data show it: active = GI50 up to about 1.1 µM and inactive = higher. Where a SMILES comes first, the peptide text is derived from it. The star is where a group is joined. Fmoc = O=C(OCC1c2ccccc2-c2ccccc21)*; OtBu = CC(C)(C)O*

Consider `Nc1nc(SCc2ccccc2)c2ncn(Cc3ccccc3)c2n1`, for which the GI50 in the assay with BT-549 and with MDA-N was > 100 µM (inactive) each time.

On to `Cc1cc(C(=O)CSC(=S)SC(C)(C)C)ccc1Cl`, for which the GI50 with BT-549 is 21.9 µM (inactive); with MDA-N, 15.8 µM (inactive).

Turning to `O=C1/C(=C/c2ccc([N+](=O)[O-])cc2)Oc2cc(O)ccc21`, the figures for the GI50 in the assay on BT-549 and with MDA-N were 25.9 µM (inactive) and 23.2 µM (inactive), respectively.

On to `CC(=O)NC1=C(C)C(=O)c2c(nc3n2CCC3OC(=O)CCl)C1=O` (stereo not given), for which the GI50 with SNB-78 was 2.96 µM (inactive); with M19-MEL it was 12.5 µM (inactive); in the assay on LXFL 529, 2.11 µM (inactive).

In the case of `COc1cc(C2C3=C(COC3=O)Oc3cc4c(cc32)OCO4)cc(OC)c1O` (stereo not given), the values for the GI50 in the assay on BT-549 and in the assay with MDA-N were 39.8 µM (inactive) and < 0.01 µM (active), respectively.

Consider `COc1ccc(N2N=NN(C(C)C)/C2=C(/Cl)c2nnnn2-c2ccc(OC)cc2)cc1`, for which the GI50 in the assay with BT-549 was 15.6 µM (inactive); with MDA-N, 13.6 µM (inactive).

`Cc1c(C(=O)CC(=O)C(=O)Nc2cc(Cl)ccc2Cl)[n+]([O-])c2ccccc2[n+]1[O-]`: the GI50 with SNB-78 is 50.1 µM (inactive); in the assay on XF498 it was 51.3 µM (inactive); in the assay with M19-MEL it was 25 µM (inactive); in the assay on HOP-18, 34.1 µM (inactive); in the assay on LXFL 529, 45.6 µM (inactive); in the assay with KM-20L2, 36.1 µM (inactive).

`CC1(C)O[C@@H](CP(c2ccc3ccccc3c2)c2ccc3ccccc3c2)[C@H](CP(c2ccc3ccccc3c2)c2ccc3ccccc3c2)O1`: the GI50 with BT-549 and in the assay with MDA-N was > 100 µM (inactive) throughout.

Regarding `O=C(c1ccccc1)c1ccc2[nH]c(-c3c(Cl)c(Cl)c(Cl)c(Cl)c3C(=O)N/N=C/c3ccc(Cl)cc3)nc2c1`, the GI50 was 33.7 µM (inactive) with BT-549 and 29.8 µM (inactive) in the assay with MDA-N.

For `CCOC(=O)c1cccc(NC(=O)CBr)c1`, the GI50 with BT-549 was 1.91 µM (inactive); with MDA-N, 1.4 µM (inactive).

`COC(=O)C12OCC34C(CC5C(C)C6=CC(=O)OC6=CC5(C)C3C(O)C1O)OC(=O)C(O)C24` (stereo not given): the GI50 in the assay on SNB-78 was 0.474 µM (active); with M19-MEL, 0.192 µM (active); with HOP-18, 0.676 µM (active); in the assay with LXFL 529, 0.101 µM (active); in the assay on KM-20L2, 0.957 µM (active).

Take `CSc1nn(C)cc2nc(C)nc1-2`: the GI50 with BT-549 and in the assay on MDA-N was > 100 µM (inactive) in each case.

Take `S=C1NC2=C(COc3ccccc32)C(c2ccc(Cl)cc2)N1` (stereo not given): the GI50 is 21.1 µM (inactive) in the assay on BT-549 and 16.4 µM (inactive) with MDA-N.

As to `N#C[C@@H](c1nc2ccccc2s1)c1ncccc1[N+](=O)[O-]`, the GI50 in the assay on BT-549 was 5 µM (inactive); in the assay with MDA-N, 7.46 µM (inactive).

Consider `N#CC1C(=O)SC2c3ccccc3C(=O)c3ccccc3C12` (stereo not given), for which the GI50 in the assay on BT-549 and in the assay with MDA-N was > 10 µM (inactive) throughout.

As to `CC1(C)/C(=N\NC(N)=O)C2CCC1C2` (stereo not given), the GI50 in the assay on BT-549 and in the assay with MDA-N was > 100 µM (inactive) in each case.

In the case of `C[C@@H](NS(=O)(=O)c1ccc(NC(=O)c2ccccc2)cc1)C(=O)O`, the GI50 with XF498, with M19-MEL, in the assay with HOP-18, in the assay on LXFL 529 and in the assay on KM-20L2 was > 100 µM (inactive) each time.

With `CC(C)(CO)NC1=C(Cl)C(=O)c2c(O)ccc(O)c2C1=O`, the GI50 was 0.942 µM (active) in the assay with BT-549 and 0.885 µM (active) in the assay with MDA-N.

Take `COC(=O)c1cccn1C(=O)n1cccc1`: the GI50 in the assay with SNB-78, in the assay with XF498, in the assay on M19-MEL, in the assay on HOP-18, in the assay on LXFL 529 and in the assay with KM-20L2 was > 100 µM (inactive) throughout.

Turning to `COc1cc(/C=C(\C)[N+](=O)[O-])cc(OC)c1`, the GI50 in the assay with BT-549 was 19.2 µM (inactive); in the assay with MDA-N, 13 µM (inactive).

`CCN(CC)CC(=O)NC1c2ccccc2Oc2c(C)cccc21` (stereo not given): the GI50 in the assay on SNB-78 was > 100 µM (inactive); in the assay on XF498, 40 µM (inactive); in the assay with M19-MEL, > 100 µM (inactive); in the assay with LXFL 529, > 100 µM (inactive); in the assay on KM-20L2 it was 55.7 µM (inactive).

As for `O=C(O)/C=C/c1ccc(Oc2ccccc2C(=O)O)o1`, the GI50 with BT-549 and in the assay with MDA-N was > 10 µM (inactive) each time.

Turning to `Cc1[nH]c2ncn3ncnc3c2c1Cc1ccccc1`, the GI50 in the assay with BT-549 and in the assay with MDA-N was > 100 µM (inactive) throughout.

For `CC(=O)C1CCN(c2ccccc2)C1` (stereo not given), the GI50 in the assay with SNB-78 is > 100 µM (inactive); in the assay with XF498, > 100 µM (inactive); with M19-MEL, > 100 µM (inactive); with KM-20L2 it was > 10 µM (inactive).

As to `N#CC12Cc3ccc4c(c3-c3cccc(c31)CCN2C(=O)c1ccccc1)OCO4` (stereo not given), the GI50 is > 100 µM (inactive) with SNB-78; 45 µM (inactive) in the assay with XF498; > 100 µM (inactive) with M19-MEL; > 100 µM (inactive) in the assay with HOP-18; > 100 µM (inactive) with LXFL 529; > 100 µM (inactive) with KM-20L2.

For the molecule `C[n+]1c2ccccc2n2c3ccccc3c(NCc3ccco3)c(C#N)c21`, the GI50 in the assay on BT-549 is 18.5 µM (inactive); in the assay with MDA-N, 1.96 µM (inactive).

As for `CCNC(=S)NNC(=O)c1ccccc1Nc1ccccc1C(=O)NNC(=S)NCC`, the GI50 with BT-549 and with MDA-N was > 100 µM (inactive) each time.

On to `O=CC1=CCC2c3[nH]c4ccccc4c3CCN2C1` (stereo not given), for which the GI50 in the assay on XF498 is 72.3 µM (inactive); in the assay with M19-MEL it was 71.8 µM (inactive); in the assay with HOP-18, > 396 µM (inactive); in the assay on LXFL 529 it was 55.7 µM (inactive); in the assay with KM-20L2, 135 µM (inactive).

For `CC#CC(=O)Nc1ccccc1CC(c1c[nH]c2ccccc12)c1c[nH]c2ccccc12`, the GI50 was 11.6 µM (inactive) in the assay on SNB-78, 15.3 µM (inactive) in the assay on M19-MEL and 15.1 µM (inactive) with LXFL 529.

As to `O=C(O)C[n+]1cn(NC(=O)Cc2ccccc2)cn1`, the GI50 in the assay on BT-549 and with MDA-N was > 10 µM (inactive) throughout.

`CCCCOC(=O)C(O)Cc1ccoc1` (stereo not given): the GI50 with BT-549 and in the assay on MDA-N was > 100 µM (inactive) in each case.

With `O=C(O)C[C@@H](Cl)[C@H](NC(=O)OCc1ccccc1)C(=O)O`, the GI50 in the assay with SNB-78, in the assay with XF498, in the assay on M19-MEL, in the assay with HOP-18, in the assay with LXFL 529 and with KM-20L2 was > 100 µM (inactive) in each case.

As to `COC(=O)C1CCC2(C)[C@H](CCC3O[C@]32C)[C@@]1(C)CC(=O)c1ccoc1` (stereo not given in full), the GI50 is > 100 µM (inactive) with SNB-78; 20.4 µM (inactive) with XF498; > 100 µM (inactive) in the assay on M19-MEL; 40.6 µM (inactive) in the assay on LXFL 529; > 100 µM (inactive) in the assay with KM-20L2.

For the molecule `Oc1cc(-c2cccc(Cl)c2)nc2ncccc12`, the GI50 with BT-549 was 7.33 µM (inactive); in the assay with MDA-N, 0.0132 µM (active).

Take `CC(C)C(NC(=O)OCC1c2ccccc2-c2ccccc21)C(=O)NC(CCC(=O)OC(C)(C)C)C(=O)OC(C)(C)C` (stereo not given) (Fmoc-Val-Glu(OtBu)-OtBu; configuration not given here): the GI50 with BT-549 and in the assay on MDA-N was > 100 µM (inactive) in each case.

As to `COc1ccc2cc3[n+](cc2c1OC)CCc1cc2c(cc1-3)OCO2` [BERBERINE CHLORIDE], the GI50 was 53.8 µM (inactive) in the assay with SNB-78; 7.82 µM (inactive) in the assay with XF498; 5.56 µM (inactive) with M19-MEL; 106 µM (inactive) in the assay on HOP-18; 28.2 µM (inactive) in the assay with KM-20L2.
